Results as given in ChEMBL document CHEMBL1201862, “PubChem BioAssay data set” (2004).
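Step 1: Grow cells in 96-well plates. Step 2: Expose to compound for 48 hours at 5 concentrations. Step 3: Interpolate endpoints linearly; if unreached, use highest concentration. Here, GI50 denotes the concentration required for 50% inhibition of growth.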 Active and inactive are the calls of the source. Cut-off read from the data, not from the text of the source: active = GI50 up to about 1.1 µM and inactive = higher.

Tests used:
Assay in all cases: NCI-60 cell line screen, 48 h
786-0 = system: 786-0
A549 = system: A549
ACHN = system: ACHN
BT-549 = system: BT-549
CAKI-1 = system: CAKI-1
CCRF-CEM = system: CCRF-CEM
COLO 205 = system: COLO 205
DU-145 = system: DU-145
EKVX = system: EKVX
HCC 2998 = system: HCC 2998
HCT-116 = system: HCT-116
HCT-15 = system: HCT-15
HOP-62 = system: HOP-62
HT-29 = system: HT-29
IGROV-1 = system: IGROV-1
K562 = system: K562
KM12 = system: KM12
LOX IMVI = system: LOX IMVI
M14 = system: M14
MCF7 = system: MCF7
MDA-MB-231 = system: MDA-MB-231
MDA-MB-435 = system: MDA-MB-435
MDA-N = system: MDA-N
MOLT-4 = system: MOLT-4
Malme-3M = system: Malme-3M
NCI-H226 = system: NCI-H226
NCI-H23 = system: NCI-H23
NCI-H460 = system: NCI-H460
NCI-H522 = system: NCI-H522
NCI/ADR-RES = system: NCI/ADR-RES
OVCAR-3 = system: OVCAR-3
OVCAR-4 = system: OVCAR-4
OVCAR-5 = system: OVCAR-5
OVCAR-8 = system: OVCAR-8
PC-3 = system: PC-3
RPMI-8226 = system: RPMI-8226
RXF 393 = system: RXF 393
SF-268 = system: SF-268
SF-295 = system: SF-295
SF-539 = system: SF-539
SK-MEL-28 = system: SK-MEL-28
SK-MEL-2 = system: SK-MEL-2
SK-MEL-5 = system: SK-MEL-5
SK-OV-3 = system: SK-OV-3
SN12C = system: SN12C
SNB-19 = system: SNB-19
SNB-75 = system: SNB-75
SR = system: SR
SW-620 = system: SW-620
TK-10 = system: TK-10
U-251 = system: U-251
UACC-257 = system: UACC-257
UACC-62 = system: UACC-62
UO-31 = system: UO-31

Q: CCOC(=O)C12C3CCC1C2C(=O)C3 (centres undefined) was tested. Which GI50 (786-0) did it give?
A: Its GI50 is > 100 µM (inactive).

Q: And the GI50 (A549)?
A: Its GI50 is > 100 µM (inactive).

Q: What about the GI50 (ACHN) of the same molecule?
A: Its GI50 is > 100 µM (inactive).

Q: And the GI50 (BT-549)?
A: Its GI50 is > 100 µM (inactive).

Q: And the GI50 (CAKI-1)?
A: Its GI50 is > 100 µM (inactive).

Q: And the GI50 (CCRF-CEM)?
A: The GI50 was > 100 µM (inactive).

Q: What about the GI50 (COLO 205) of the same molecule?
A: Its GI50 is > 100 µM (inactive).

Q: What about the GI50 (DU-145) of the same molecule?
A: Its GI50 is > 100 µM (inactive).

Q: And the GI50 (EKVX)?
A: Its GI50 is > 100 µM (inactive).

Q: And the GI50 (HCC 2998)?
A: The GI50 was > 100 µM (inactive).

Q: What about the GI50 (HCT-116) of the same molecule?
A: The GI50 was > 100 µM (inactive).

Q: And the GI50 (HCT-15)?
A: The GI50 was greater than 100 µM.

Q: And the GI50 (HOP-62)?
A: The GI50 was > 100 µM (inactive).

Q: And the GI50 (HT-29)?
A: Its GI50 is > 100 µM (inactive).

Q: And the GI50 (IGROV-1)?
A: Its GI50 is > 100 µM (inactive).

Q: What about the GI50 (K562) of the same molecule?
A: The GI50 was > 100 µM (inactive).

Q: And the GI50 (KM12)?
A: Its GI50 is > 100 µM (inactive).

Q: What about the GI50 (LOX IMVI) of the same molecule?
A: Its GI50 is > 100 µM (inactive).

Q: What about the GI50 (M14) of the same molecule?
A: The GI50 was > 100 µM (inactive).

Q: What about the GI50 (MCF7) of the same molecule?
A: The GI50 was > 100 µM (inactive).

Q: And the GI50 (MDA-MB-231)?
A: Its GI50 is > 100 µM (inactive).

Q: And the GI50 (MDA-MB-435)?
A: Its GI50 is > 100 µM (inactive).

Q: And the GI50 (MDA-N)?
A: Its GI50 is > 100 µM (inactive).

Q: And the GI50 (MOLT-4)?
A: The GI50 was > 100 µM (inactive).

Q: And the GI50 (Malme-3M)?
A: The GI50 was > 100 µM (inactive).

Q: What about the GI50 (NCI-H226) of the same molecule?
A: The GI50 was > 100 µM (inactive).

Q: What about the GI50 (NCI-H23) of the same molecule?
A: Its GI50 is > 100 µM (inactive).

Q: And the GI50 (NCI-H460)?
A: The GI50 was > 100 µM (inactive).

Q: What about the GI50 (NCI-H522) of the same molecule?
A: Its GI50 is > 100 µM (inactive).

Q: What about the GI50 (NCI/ADR-RES) of the same molecule?
A: Its GI50 is > 100 µM (inactive).

Q: What about the GI50 (OVCAR-3) of the same molecule?
A: The GI50 was > 100 µM (inactive).

Q: What about the GI50 (OVCAR-4) of the same molecule?
A: The GI50 was > 100 µM (inactive).

Q: What about the GI50 (OVCAR-5) of the same molecule?
A: The GI50 was > 100 µM (inactive).

Q: What about the GI50 (OVCAR-8) of the same molecule?
A: The GI50 was > 100 µM (inactive).

Q: And the GI50 (PC-3)?
A: Its GI50 is > 100 µM (inactive).

Q: And the GI50 (RPMI-8226)?
A: Its GI50 is > 100 µM (inactive).

Q: And the GI50 (RXF 393)?
A: Its GI50 is > 100 µM (inactive).

Q: And the GI50 (SF-268)?
A: The GI50 was > 100 µM (inactive).

Q: What about the GI50 (SF-295) of the same molecule?
A: The GI50 was > 100 µM (inactive).

Q: What about the GI50 (SF-539) of the same molecule?
A: Its GI50 is > 100 µM (inactive).

Q: And the GI50 (SK-MEL-28)?
A: The GI50 was > 100 µM (inactive).

Q: And the GI50 (SK-MEL-2)?
A: Its GI50 is > 100 µM (inactive).

Q: What about the GI50 (SK-MEL-5) of the same molecule?
A: Its GI50 is > 100 µM (inactive).

Q: What about the GI50 (SK-OV-3) of the same molecule?
A: Its GI50 is > 100 µM (inactive).

Q: And the GI50 (SN12C)?
A: The GI50 was > 100 µM (inactive).

Q: And the GI50 (SNB-19)?
A: The GI50 was > 100 µM (inactive).

Q: What about the GI50 (SNB-75) of the same molecule?
A: The GI50 was > 100 µM (inactive).

Q: What about the GI50 (SR) of the same molecule?
A: The GI50 was > 100 µM (inactive).

Q: What about the GI50 (SW-620) of the same molecule?
A: The GI50 was > 100 µM (inactive).

Q: And the GI50 (TK-10)?
A: Its GI50 is > 100 µM (inactive).

Q: And the GI50 (U-251)?
A: Its GI50 is > 100 µM (inactive).

Q: What about the GI50 (UACC-257) of the same molecule?
A: Its GI50 is > 100 µM (inactive).

Q: And the GI50 (UACC-62)?
A: Its GI50 is > 100 µM (inactive).

Q: What about the GI50 (UO-31) of the same molecule?
A: The GI50 was > 100 µM (inactive).
